Assay results from patent publication US12673926B2, “Tetrazine compounds for in vivo imaging” (KØBENHAVNS UNIVERSITET, priority 2018, dated 2026).

Assays:
[1] = Blood stability (TLC data); assay type: in vitro ADME; details: mice whole blood, 37° C.
Procedure: (§1) Blood stability was tested by mixing 250 μL mice whole blood with 250 μL of the formulated Tz, the mixture was heated and shaken at 37° C. At given time points 1, 2, 3, 5, 10, 20, 60 and 180 min, 20 μL were withdrawn and cooled to 0° C. At the same time points, 20 μL were added to a 20 μL of a solution of 1 mg/mL KSMO (TCO-Polymer) in PBS and left at RT for 1 h.
(§2) The mixtures were then centrifuged at 4200 rpm for 3 min, before ACN (40 μL) was added and centrifuged again for 3 min at 4200 rpm. The supernatant was withdrawn and analyzed with TLC and/or HPLC.

TCO click ability = details: TCO-KSMO in PBS, TLC
Procedure: To a solution of TCO-KSMO (the polymer) 500 μL (1 mg/mL) PBS was added 100 μL of the formulated tetrazine.
In given time intervals, 2 μL of the solution was withdrawn and quenched with 20 μL of a 3 mg/mL bispyridine-tetrazine solution. TLC (EtOAc) determined the fraction of tetrazines reacted to the TCO. (tetrazine; front, 1,4 adduct; baseline)

[2] = Blood stability (TLC data); assay type: in vitro ADME; details: mice whole blood, 37° C., 0 min
[3] = TCO click ability after incubation in blood; parameters: species or system mice; details: KSMO 1 h RT
Procedure: as §1, §2

[4] = Rate constant measurements (stopped-flow, pseudo-first order); details: at 25° C.
Procedure: Based on these encouraging results, a study was performed to investigate whether the identified labeling conditions could be applied to Tzs that are more reactive. In this respect, Tz's with stepwise increased reactivity have been tested. […] Synthesis of respective reference compounds and precursors was completed in the same manner as discussed before. Respective second-order rate constants were determined via stopped-flow measurements. […] Radiolabeling was studied using the best aliquot conditions identified in our previous experiments. RCC for [^18F]7, [18F]8 and [^18F]9 were 35%, 30%, and 33%, respectively.
[…] Measurements were performed using a SX20 stopped flow photometer (Applied Photophysics, UK) equipped with a 360 nm LED light source and a photomultiplier type R374 in combination with a 400 nm longpass filter as detector.

[5] = Pretargeted PET/CT imaging with TCO-BP pretreatment; assay type: in vivo, Balb/c mice; details: BP-TCO pretreated mice vs controls; i.v.; 60 min dynamic PET
Procedure: All animal studied were approved by the Danish Animal Welfare Council, ministry of Justice. Five weeks old female Balb/c mice (Charles River) were acclimatized for one week with access to water and chow ad libitum. Trans-cyclooctene functionalized bisphosphonates (TCO-BP's) (100 μg. 100 μl PBS) were injected i.v. (n=2), and 1 hour later animals were administered i.v. with [^18F]9 (ca 4MBq) via the tail vein.
The animals were scanned on a dedicated small animal PET/CT scanner (Siemens) during which they were kept anesthetized by breathing sevoflurane and their temperature maintained by heating pad. Immediately after injection of [^18F]9, the animals were moved to a small animal PET/CT scanner and a 60 min dynamic PET acquisition (energy window of 350-650 KeV and a time resolution of 6 ns) was performed followed by a CT scan (360 projections, 65 kV, 500 ρA and 400 ms). Sinograms from PET scans were framed and reconstructed using a 3-dimensional maximum a posteriori algorithm with CT-based attenuation correction. PET and CT images were co-registered and analysed using Inveon software (Siemens). The mean percentage of injected dose per grams (% ID/g) in different tissues was extracted by manually creating regions of interest on fused PET/CT images.
The bioorthogonal chemistry employed is illustrated in FIG. 1. […]

[6] = after 0 min in mice whole blood at 37° C.
[7] = after 1 min in mice whole blood at 37° C.
[8] = after 2 min in mice whole blood at 37° C.
[9] = after 3 min in mice whole blood at 37° C.
[10] = after 5 min in mice whole blood at 37° C.
[11] = after 10 min in mice whole blood at 37° C.
[12] = after 20 min in mice whole blood at 37° C.
[13] = after 60 min in mice whole blood at 37° C.
[14] = after 180 min in mice whole blood at 37° C.

Structure (SMILES) | Stability ([1]; 1 min) [%] | Stability ([1]; 2 min) [%] | Stability ([1]; 3 min) [%] | Stability ([1]; 5 min) [%] | Stability ([1]; 10 min) [%] | Stability ([1]; 20 min) [%] | Stability ([1]; 60 min) [%] | Stability ([1]; 180 min) [%] | fraction of tetrazines reacted to the TCO (TCO click ability; 30 sec) [%] | fraction of tetrazines reacted to the TCO (TCO click ability; 1 min) [%] | fraction of tetrazines reacted to the TCO (TCO click ability; 2 min) [%] | fraction of tetrazines reacted to the TCO (TCO click ability; 3 min) [%] | fraction of tetrazines reacted to the TCO (TCO click ability; 5 min) [%] | Stability [2] [%] | TCO click ability [3, 6] [%] | TCO click ability [3, 7] [%] | TCO click ability [3, 8] [%] | TCO click ability [3, 9] [%] | TCO click ability [3, 10] [%] | Second-order rate constant k2 [4] [M⁻¹ s⁻¹] | also measured
Cc1nnc(-c2cccc([18F])c2)nn1 [[^18F]7] | 95 | 96 | 95 | 95 | 96 | 96 | 96 | 77 | 100 | 100 | 100 | 100 | 100 | 94 | 100 | 100 | 100 | 100 | 100 |  | TCO click ability [3, 11]: 100%; TCO click ability [3, 12]: 100%; TCO click ability [3, 13]: 100%; TCO click ability [3, 14]: 100%
[18F]c1ccc(-c2nncnn2)cc1 [[^18F]8] | 72 | 85 | 89 | 88 | 90 | 89 | 88 | 82 |  | 100 | 100 | 100 | 100 | 90 | 100 | 100 | 100 | 100 | 100 | 159 | TCO click ability [3, 11]: 100%; TCO click ability [3, 12]: 100%; TCO click ability [3, 13]: 100%; TCO click ability [3, 14]: 100%
[18F]c1cccc(-c2nncnn2)c1 [[^18F]9] |  |  |  |  |  |  |  |  | 100 | 100 | 100 | 100 |  |  |  |  |  |  |  | 222 | fraction of tetrazines reacted to the TCO (TCO click ability; 15 sec): 100%; PET uptake in bones (knee), the target region of BP-TCOs, compared to controls [5]: higher uptake; PET uptake in control region (the heart), treated vs non-treated mice [5]: no differences could be detected
Cc1nnc(-c2ccc([18F])cc2)nn1 [[^18F]6] |  |  |  |  |  |  |  |  | 100 | 100 | 100 | 100 | 100 |  |  |  |  |  |  | 2.25 | 
